Here are results for 33 compounds from patent publication US20100190747A1, “Fused ring compound and use thereof” (priority 2009, published 2010).

The target in the assay is T1, delta-5-desaturase (Rattus norvegicus, UniProt Q920R3).
T1 construct: the microsomal fraction of a rat river (10 μl), which had been diluted to 3 mg/ml; from tissue; host or cells: rat liver microsomal fraction
Description: Inhibitory activity on delta-5-desaturase (rat liver microsomal fraction, 14C-eicosatrienoic acid, TLC). The assay is classed as biochemical. Particulars: test compound at 10 μM, room temperature, 120 minutes. Summed up:
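Rat liver microsomes (3 mg/ml before addition) incubated with test compound at 10 μM, NADH, ATP, CoA and 14C-eicosatrienoic acid in phosphate buffer pH 7.4 with BSA and glutathione, 120 min at room temperature. Lipids saponified, extracted, separated by reverse-phase TLC and imaged; % inhibition reported.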
On the technique in general: Liver microsomes are vesicles of endoplasmic reticulum, rich in cytochrome P450 enzymes.

T1 sequence (Q920R3 whole entry): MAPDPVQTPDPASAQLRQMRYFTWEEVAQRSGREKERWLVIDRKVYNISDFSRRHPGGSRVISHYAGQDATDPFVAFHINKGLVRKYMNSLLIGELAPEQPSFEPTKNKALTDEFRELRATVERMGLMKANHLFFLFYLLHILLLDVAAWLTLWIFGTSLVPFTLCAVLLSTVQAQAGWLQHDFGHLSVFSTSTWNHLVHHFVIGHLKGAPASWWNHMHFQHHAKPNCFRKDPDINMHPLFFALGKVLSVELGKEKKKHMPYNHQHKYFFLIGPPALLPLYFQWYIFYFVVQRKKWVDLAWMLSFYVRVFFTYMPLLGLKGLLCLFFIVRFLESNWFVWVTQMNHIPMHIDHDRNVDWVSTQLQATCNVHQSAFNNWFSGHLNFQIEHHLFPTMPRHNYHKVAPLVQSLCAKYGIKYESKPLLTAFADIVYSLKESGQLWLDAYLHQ

In the case of `N#CCCNC(=O)CCCSc1nc2[nH]ccc2c(=O)n1-c1ccc(OCC2CC2)cc1` [Example 185, N-(2-cyanoethyl)-4-({3-[4-(cyclopropylmethoxy)phenyl]-4-oxo-4,7-dihydro-3H-pyrrolo[2,3-d]pyrimidin-2-yl}sulfanyl)butanamide], the inhibition at 10 µM is 97%. With `N#CCCNC(=O)CCCSc1nc2[nH]ccc2c(=O)n1-c1ccc(OCCCC(F)(F)F)cc1` [Example 186, N-(2-cyanoethyl)-4-({4-oxo-3-[4-(4,4,4-trifluorobutoxy)phenyl]-4,7-dihydro-3H-pyrrolo[2,3-d]pyrimidin-2-yl}sulfanyl)butanamide], the inhibition at 10 µM is 100%.

On to `CC1(COc2ccc(-n3c(SCCCC(=O)NCCC#N)nc4[nH]ccc4c3=O)cc2)CC1` [Example 188, N-(2-cyanoethyl)-4-[(3-{4-[(1-methylcyclopropyl)methoxy]phenyl}-4-oxo-4,7-dihydro-3H-pyrrolo[2,3-d]pyrimidin-2-yl)sulfanyl]butanamide], for which the inhibition at 10 µM came out at 98%. The value for `N#CCCNC(=O)CCCSc1nc2[nH]ccc2c(=O)n1-c1ccc(OCCC(F)(F)F)cc1` [Example 189, N-(2-cyanoethyl)-4-({4-oxo-3-[4-(3,3,3-trifluoropropoxy)phenyl]-4,7-dihydro-3H-pyrrolo[2,3-d]pyrimidin-2-yl}sulfanyl)butanamide] was 105%; that for `COCCOCCCSc1nc2[nH]ccc2c(=O)n1-c1ccc(OCC(F)(F)F)cc1` [Example 191, 2-{[3-(2-Methoxyethoxy)propyl]sulfanyl}-3-[4-(2,2,2-trifluoroethoxy)phenyl]-3,7-dihydro-4H-pyrrolo[2,3-d]pyrimidin-4-one] was 101%; that for `CCOCCOCCSc1nc2[nH]ccc2c(=O)n1-c1ccc(OCC(F)(F)F)cc1` [Example 192, 2-{[2-(2-Ethoxyethoxy)ethyl]sulfanyl}-3-[4-(2,2,2-trifluoroethoxy)phenyl]-3,7-dihydro-4H-pyrrolo[2,3-d]pyrimidin-4-one] was 101%. The result for `CCn1ccc2c(=O)n(-c3ccc(OCC(F)(F)F)cc3)c(SCCCC(=O)NCCC#N)nc21` [Example 193] reads 100%.

For `CCSc1nc2[nH]ccc2c(=O)n1-c1ccc(OCC(F)(F)F)cc1` [Example 194, 2-(Ethylsulfanyl)-3-[4-(2,2,2-trifluoroethoxy)phenyl]-3,7-dihydro-4H-pyrrolo[2,3-d]pyrimidin-4-one], the inhibition at 10 µM worked out at 103%.

For the compound `Cn1ccc2c(=O)n(-c3ccc(OCC(F)(F)F)cc3)c(SCCCC(=O)NCCC#N)nc21` [Example 195], the inhibition at 10 µM is 101%. The result for `CCS(=O)(=O)c1nc2[nH]ccc2c(=O)n1-c1ccc(OCC(F)(F)F)cc1` [Example 207, 2-(Ethylsulfonyl)-3-[4-(2,2,2-trifluoroethoxy)phenyl]-3,7-dihydro-4H-pyrrolo[2,3-d]pyrimidin-4-one] reads 101%; that for `CCSc1nc2[nH]ccc2c(=O)n1-c1ccc(OCC2CC2)cc1` [Example 208, 3-[4-(Cyclopropylmethoxy)phenyl]-2-(ethylsulfanyl)-3,7-dihydro-4H-pyrrolo[2,3-d]primidin-4-one], 100%.

In the case of `CCOc1nc2[nH]ccc2c(=O)n1-c1ccc(OCC(F)(F)F)cc1` [Example 209, 2-Ethoxy-3-[4-(2,2,2-trifluoroethoxy)phenyl]-3,7-dihydro-4H-pyrrolo[2,3-d]pyrimidin-4-one], the inhibition at 10 µM is 99%.

As to `CSc1nc2[nH]ccc2c(=O)n1-c1ccc(OCC(F)(F)F)cc1` [Example 212, 2-(Methylsulfanyl)-3-[4-(2,2,2-trifluoroethoxy)phenyl]-3,7-dihydro-4H-pyrrolo[2,3-d]pyrimidin-4-one], the inhibition at 10 µM was 98%. Turning to `CCOCCCSc1nc2[nH]ccc2c(=O)n1-c1ccc(OCC(F)(F)F)cc1` [Example 213, 2-[(3-Ethoxypropyl)sulfanyl]-3-[4-(2,2,2-trifluoroethoxy)phenyl]-3,7-dihydro-4H-pyrrolo[2,3-d]pyrimidin-4-one], the inhibition at 10 µM was 100%. Regarding `O=c1c2cc[nH]c2nc(SCCO)n1-c1ccc(OCC(F)(F)F)cc1` [Example 214, 2-[(2-Hydroxyethyl)sulfanyl]-3-[4-(2,2,2-trifluoroethoxy)phenyl]-3,7-dihydro-4H-pyrrolo[2,3-d]pyrimidin-4-one], the inhibition at 10 µM turned out to be 101%.

As for `CS(=O)(=O)CCCSc1nc2[nH]ccc2c(=O)n1-c1ccc(OCC2CC2)cc1` [Example 215, 3-[4-(Cyclopropylmethoxy)phenyl]-2-{[3-(methylsulfonyl)propyl]sulfanyl}-3,7-dihydro-4H-pyrrolo[2,3-d]pyrimidin-4-one], the inhibition at 10 µM amounted to 102%.

In the case of `CCCOc1nc2[nH]ccc2c(=O)n1-c1ccc(OCC(F)(F)F)cc1` [Example 217, 2-Propoxy-3-[4-(2,2,2-trifluoroethoxy)phenyl]-3,7-dihydro-4H-pyrrolo[2,3-d]pyrimidin-4-one], the inhibition at 10 µM was determined as 99%. The result for `O=c1c2cc[nH]c2nc(SCC(O)COC2CCOCC2)n1-c1ccc(OCC(F)(F)F)cc1` (stereo not drawn) [Example 219, 2-{[2-Hydroxy-3-(tetrahydro-2H-pyran-4-yloxy)propyl]sulfanyl}-3-[4-(2,2,2-trifluoroethoxy)phenyl]-3,7-dihydro-4H-pyrrolo[2,3-d]pyrimidin-4-one] reads 102%; that for `CC(C)Oc1nc2[nH]ccc2c(=O)n1-c1ccc(OCC(F)(F)F)cc1` [Example 221, 2-(1-Methylethoxy)-3-[4-(2,2,2-trifluoroethoxy)phenyl]-3,7-dihydro-4H-pyrrolo[2,3-d]pyrimidin-4-one], 104%.

Consider `CCCCOc1nc2[nH]ccc2c(=O)n1-c1ccc(OCC(F)(F)F)cc1` [Example 222, 2-Butoxy-3-[4-(2,2,2-trifluoroethoxy)phenyl]-3,7-dihydro-4H-pyrrolo[2,3-d]pyrimidin-4-one], for which the inhibition at 10 µM is 101%. The value for `O=c1c2cc[nH]c2nc(SC(F)F)n1-c1ccc(OCC(F)(F)F)cc1` [Example 223, 2-[(Difluoromethyl)sulfanyl]-3-[4-(2,2,2-trifluoroethoxy)phenyl]-3,7-dihydro-4H-pyrrolo[2,3-d]pyrimidin-4-one] was 103%.

For the compound `CCCSc1nc2[nH]ccc2c(=O)n1-c1ccc(OCC(F)(F)F)cc1` [Example 224, 2-(Propylsulfanyl)-3-[4-(2,2,2-trifluoroethoxy)phenyl]-3,7-dihydro-4H-pyrrolo[2,3-d]pyrimidin-4-one], the inhibition at 10 µM came to 100%. The result for `O=c1c2cc[nH]c2nc(SCC(F)(F)F)n1-c1ccc(OCC(F)(F)F)cc1` [Example 225, 3-[4-(2,2,2-Trifluoroethoxy)phenyl]-2-[(2,2,2-trifluoroethyl)sulfanyl]-3,7-dihydro-4H-pyrrolo[2,3-d]pyrimidin-4-one] reads 100%; that for `O=c1c2cc[nH]c2nc(OCC2CC2)n1-c1ccc(OCC(F)(F)F)cc1` [Example 226, 2-(Cyclopropylmethoxy)-3-[4-(2,2,2-trifluoroethoxy)phenyl]-3,7-dihydro-4H-pyrrolo[2,3-d]pyrimidin-4-one], 102%. Take `O=c1c2cc[nH]c2nc(OCC(F)(F)F)n1-c1ccc(OCC(F)(F)F)cc1` [Example 227, 2-(2,2,2-Trifluoroethoxy)-3-[4-(2,2,2-trifluoroethoxy)phenyl]-3,7-dihydro-4H-pyrrolo[2,3-d]pyrimidin-4-one]: the inhibition at 10 µM turned out to be 99%. The value for `CCSc1nc2[nH]c(Cl)cc2c(=O)n1-c1ccc(OCC(F)(F)F)cc1` [Example 231, 6-Chloro-2-(ethylsulfanyl)-3-[4-(2,2,2-trifluoroethoxy)phenyl]-3,7-dihydro-4H-pyrrolo[2,3-d]pyrimidin-4-one] was 101%; that for `CCSc1nc2[nH]c(Br)cc2c(=O)n1-c1ccc(OCC(F)(F)F)cc1` [Example 232, 6-Bromo-2-(ethylsulfanyl)-3-[4-(2,2,2-trifluoroethoxy)phenyl]-3,7-dihydro-4H-pyrrolo[2,3-d]pyrimidin-4-one] was 96%. As for `CSc1nc2[nH]ccc2c(=O)n1-c1ccc(OCC(F)(F)F)c(F)c1` [Example 237, 3-[3-Fluoro-4-(2,2,2-trifluoroethoxy)phenyl]-2-(methylsulfanyl)-3,7-dihydro-4H-pyrrolo[2,3-d]pyrimidin-4-one], the inhibition at 10 µM worked out at 98%. The value for `O=c1c2cc[nH]c2nc(OCC(F)(F)C(F)(F)F)n1-c1ccc(OCC(F)(F)F)cc1` [Example 239, 2-(2,2,3,3,3-Pentafluoropropoxy)-3-[4-(2,2,2-trifluoroethoxy)phenyl]-3,7-dihydro-4H-pyrrolo[2,3-d]pyrimidin-4-one] was 101%; that for `O=c1c2cc[nH]c2nc(OCC(F)F)n1-c1ccc(OCC(F)(F)F)cc1` [Example 244, 2-(2,2-Difluoroethoxy)-3-[4-(2,2,2-trifluoroethoxy)phenyl]-3,7-dihydro-4H-pyrrolo[2,3-d]pyrimidin-4-one] was 101%; that for `O=c1c2cc[nH]c2nc(Oc2ccc(F)cc2)n1-c1ccc(OCC(F)(F)F)cc1` [Example 246, 2-(4-Fluorophenoxy)-3-[4-(2,2,2-trifluoroethoxy)phenyl]-3,7-dihydro-4H-pyrrolo[2,3-d]pyrimidin-4-one] was 101%. On to `O=c1c2cc[nH]c2nc(OC2CCC2)n1-c1ccc(OCC(F)(F)F)cc1` [Example 247, 2-(Cyclobutyloxy)-3-[4-(2,2,2-trifluoroethoxy)phenyl]-3,7-dihydro-4H-pyrrolo[2,3-d]pyrimidin-4-one], for which the inhibition at 10 µM is 103%. The result for `CCSc1nc2[nH]ccc2c(=O)n1-c1ccc(OCC(F)F)cc1` [Example 248, 3-[4-(2,2-Difluoroethoxy)phenyl]-2-(ethylsulfanyl)-3,7-dihydro-4H-pyrrolo[2,3-d]pyrimidin-4-one] reads 101%.

A word on the inhibition: it is the drop in the measured response relative to a control, in per cent.
